Results on ten compounds are retold here after article PMC9315496, “A Comparison of the Photophysical, Electrochemical and Cytotoxic Properties of meso-(2-, 3- and 4-Pyridyl)-BODIPYs and Their Derivatives” (Sensors (Basel, Switzerland), 2022).

Like-named read-outs stand apart in the source and are kept apart here. Marks after values point to notes of the source that are not given here. A value given as a limit tells only on which side of the number the result lay.

The test system of series [1] is HEp2 cells. Kind of series: Dark cytotoxicity, Cell Titer Blue. Particulars: Homo sapiens, HEp-2, 24 h incubation, read-out: Dark Toxicity (IC50). In kind it is cell-based. Here is the method:
(§1) Human carcinoma HEp2 cells were obtained from ATCC and maintained in a 75 cm^2 flask (Chemglass) with 1× MEM (Eagle’s minimal essential medium) containing 10% FBS (fetal bovine serum) and 1% antibiotic (penicillin–streptomycin) in a humidified, 5% CO2 incubator at 37 °C. Stock solutions with a concentration of 32 mM in DMSO were prepared for each BODIPY. The stock solution was diluted to the final working concentrations with culture medium. The HEp2 cells were plated at 7500–10,000 cells per well in a Costar 96-well plate and allowed to grow for 24 h. The BODIPY stock solution was diluted to a 200 μM working solution and two-fold serial dilutions were prepared with final concentrations of 200, 100, 50, 25, 12.5, 6.25, and 0 μM. Each BODIPY was incubated for 24 h at 37 °C under 5% CO2. For the dark cytotoxicity experiments, after incubation, excess BODIPY was removed by washing the cells three times with 1× PBS (phosphate-buffered saline) and replacing with media containing 20% Cell Titer Blue (Promega, Madison, WI, USA). The cells were then incubated for additional 24 h at 37 °C under 5% CO2 and the cell toxicity was determined by fluorescence intensity at ex 570/em 615 nm using a FluoStar Optima microplate reader (BMG Labtech, Cary, NC, USA).

Series [2] relates to HEp2 cells. Kind of series: Phototoxicity (1.5 J/cm^2), Cell Titer Blue. The class given is cell-based. Particulars: Homo sapiens, HEp-2, light or radiation study, light dose 1.5 J/cm^2. The protocol: as §1
For the phototoxicity experiments, after incubation the cells were exposed to a light dose of ~1.5 J/cm^2 generated using a 600 W Quartz Tungsten Halogen lamp (Newport Corporation, Irvine, CA, USA). The cells were exposed for 20 min while the 96-well plate rested on an EchoTherm chilling plate (Torrey Pines Scientific, Carlsbad, CA, USA) set to 5 °C. Following light exposure, the loading media was removed and media containing 20% Cell Titer Blue was added. After incubation for 24 h at 37 °C under 5% CO2, the cell viability was determined as described above.

The nature of series [3]: UV-vis absorption and emission spectroscopy, relative fluorescence quantum yields. The class given is physicochemical. Conditions: for λabs / λem: room temperature; for Фf (relative fluorescence quantum yield): standard rhodamine-6G (Ф = 0.86) in methanol, λexc = 473 nm; for Φf (relative fluorescence quantum yield): standard Ru(bpy)Cl2.6H2O (Φf = 0.028) in H2O, λexc = 436 nm. Here is the method:
UV−vis absorption spectra were collected on a Varian Cary 50 Bio spectrophotometer. Emission spectra were obtained on a PerkinElmer LS55 spectrophotometer, at room temperature. Spectrophotometric grade solvents and quartz cuvettes (1 cm path length) were used. Relative fluorescence quantum yields (Φf) were calculated using rhodamine 6G (Φf = 0.86 in methanol) as reference for the neutral BODIPYs and Ru(bpy)Cl2.6H2O (Φf = 0.028 in water) as the standard for the cationic BODIPYs using the following equation: Φx = Φst × Gradx/Gradst × (ηx/ηst)^2, where the ΦX and ΦST are the quantum yields of the sample and standard, GradX and GradST are the gradients from the plot of integrated fluorescence intensity vs. absorbance, and η represents the refractive index of the solvent (x is for the sample and st for the standard).

The next series in a line: Cyclic voltammetry. The class given is physicochemical. The text has this: Cyclic voltammograms were collected on a Biologic SP-300 potentiostat using a three-electrode setup with a platinum working electrode (2 mm diameter, CH Instruments), platinum counter electrode (2 mm diameter, CH Instruments), and a silver wire pseudo reference-electrode stored in 0.25 M NBu4PF6 in anhydrous acetonitrile and separated from the electrochemical cell by a glass frit. The electrochemical cell was composed of a borosilicate glass scintillation vial with a custom-machined cap. Working electrodes were polished and then pre-treated by cycling between upper and lower boundaries of the electrochemical window for the experiment in a solution containing only the electrolyte. Measurements were taken in a solution of 0.25 M recrystallized NBu4PF6 in dried and degassed anhydrous acetonitrile. BODIPYs were added to 5 mL of electrolyte solution to give a concentration of 1 mM. Each solution also contained 1 mM ferrocene as an internal reference. Solutions were sparged with N2 before each measurement.

The conditions of series [4]: cited from earlier work.
[5] abbreviates: vs. Fc^+/Fc, 100 mV/s, acetonitrile, 0.25 M NBu4PF6.

On to `CC1=C(Cl)C(C)=[N+]2C1=C(c1ccccn1)c1c(C)c(Cl)c(C)n1[B-]2(F)F` [2PyCl2, 2,6-Dichloro-8-(2-pyridyl)-1,3,5,7-tetramethyl-BODIPY], for which the IC50 with HEp2 cells [1] is > 200 µM. In addition, in the series on HEp2 cells [2], the 50% inhibitory concentration (IC50) is > 100 µM. Besides, in series [3] (CH3CN), the “Stokes Shift” value is listed as 15 nm, the “ε (molar extinction coefficient)” value was 64,280 M^−1 cm ^−1, the λabs turned out to be 530 nm and the λem turned out to be 545 nm. Also, in series [3] (CH3OH), the “Stokes Shift” value worked out at 17 nm, the labs was 531 nm, the lem is recorded as 548 nm and the “ε (molar extinction coefficient)” value is recorded as 69940 M-1 cm -1. In series [3] (CH3OH), the “Фf (relative fluorescence quantum yield)” value turned out to be 0.23.

Take `CC1=CC(C)=[N+]2C1=C(c1ccccn1)c1c(C)cc(C)n1[B-]2(F)F` [2Py]: in the series on HEp2 cells [1], the IC50 is > 200 µM. In addition, the IC50 in the series on HEp2 cells [2] was > 100 µM. For the same compound, in series [3] (CH3CN), the “Stokes Shift” value came to 12 nm, the “ε (molar extinction coefficient)” value is 87,500 M^−1 cm ^−1, the λabs came to 502 nm and the λem was determined as 514 nm. For the same compound, in series [3] (CH3OH), the “Stokes Shift” value came to 10 nm, the labs was 504 nm, the lem was 514 nm and the “ε (molar extinction coefficient)” value is listed as 119800 M-1 cm -1. In addition, the “Фf (relative fluorescence quantum yield)” value in series [3] (CH3OH) amounted to 0.13.

For `CC1=CC(C)=[N+]2C1=C(c1cccc[n+]1C)c1c(C)cc(C)n1[B-]2(F)F` [2catPy, 1,3,5,7-Tetramethyl-8-(N-methyl-2-pyridyl)-BODIPY Iodide], in the series “Cyclic voltammetry”, the “first reduction, more negative than the two-electron reduction in 4catPy” value turned out to be 30 mV; the “oxidation potential shift positive compared with 4catPy and 3catPy” value is 100 mV; the “second reduction, more negative than the two-electron reduction in 4catPy” value turned out to be 230 mV. In “Cyclic voltammetry” (setting [5]), the “E1/2red, first one-electron reduction” value is reported as −1.09 V and the “E1/2red, second one-electron reduction” value is −1.29 V. The E1/2ox result in the series “Cyclic voltammetry” (vs. Fc^+/Fc, 100 mV/s, acetonitrile, 0.25 M NBu4PF6, PF6^− counterion) was “~+0.99 ^a V”. Moreover, the half-inhibitory concentration (IC50) with HEp2 cells [1] is > 200 µM. In the series on HEp2 cells [2], the IC50 was > 100 µM. Further, in series [3] (CH3CN), the “Stokes Shift” value is given as 24 nm, the “ε (molar extinction coefficient)” value was 65,800 M^−1 cm ^−1, the λabs stood at 520 nm and the λem was 544 nm. Further, the “Φf (relative fluorescence quantum yield)” value in series [3] (CH3CN) is recorded as 0.13 ^b. In series [3] (H2O), the “Stokes Shift” value is reported as 22 nm, the “ε (molar extinction coefficient)” value was 52,380 M^−1 cm ^−1, the λabs was found to be 520 nm and the λem was found to be 542 nm. In series [3] (H2O), the “Φf (relative fluorescence quantum yield)” value was 0.001 ^b. In addition, in series [3] (acetonitrile, experimental), the “bathochromic shift of maximum absorption wavelength upon methylation” value stood at 18 nm.

For `CC1=C(Cl)C(C)=[N+]2C1=C(c1cccnc1)c1c(C)c(Cl)c(C)n1[B-]2(F)F` [3PyCl2, 2,6-Dichloro-8-(3-pyridyl)-1,3,5,7-tetramethyl-BODIPY], in the series with HEp2 cells [1], the IC50 was determined as 200 µM. In addition, the half-inhibitory concentration (IC50) in the series on HEp2 cells [2] is > 100 µM. For the same compound, in series [3] (CH3CN), the “Stokes Shift” value came to 15 nm, the “ε (molar extinction coefficient)” value is listed as 57,540 M^−1 cm ^−1, the λabs was found to be 527 nm and the λem amounted to 542 nm. For the same compound, in series [3] (CH3OH), the “Stokes Shift” value worked out at 16 nm, the labs amounted to 530 nm, the lem turned out to be 546 nm and the “ε (molar extinction coefficient)” value is reported as 66880 M-1 cm -1. The “Фf (relative fluorescence quantum yield)” value in series [3] (CH3OH) is given as 0.57.

As for `CC1=CC(C)=[N+]2C1=C(c1cccnc1)c1c(C)cc(C)n1[B-]2(F)F` [3Py], in the series with HEp2 cells [1], the half-inhibitory concentration (IC50) was > 200 µM. Moreover, the IC50 with HEp2 cells [2] is > 100 µM. Also, in series [3] (CH3CN), the “Stokes Shift” value turned out to be 12 nm, the “ε (molar extinction coefficient)” value was 92,900 M^−1 cm ^−1, the λabs is listed as 502 nm and the λem turned out to be 514 nm. Besides, in series [3] (CH3OH), the “Stokes Shift” value amounted to 12 nm, the labs was found to be 503 nm, the lem is given as 515 nm and the “ε (molar extinction coefficient)” value is listed as 98140 M-1 cm -1. For the same compound, in series [3] (CH3OH), the “Фf (relative fluorescence quantum yield)” value was 0.34.

As to `CC1=C(Cl)C(C)=[N+]2C1=C(c1ccncc1)c1c(C)c(Cl)c(C)n1[B-]2(F)F` [4PyCl2], in series [4] (CH3CN), the “Stokes Shift” value is listed as 18 nm, the “Φf (fluorescence quantum yield)” value is 0.58, the “ε (molar extinction coefficient)” value is on record as 50,800 M^−1 cm ^−1 and the λabs is given as 528 nm. For the same compound, the λem in series [4] (CH3CN) was 546 nm.

As to `CC1=CC(C)=[N+]2C1=C(c1ccncc1)c1c(C)cc(C)n1[B-]2(F)F` [4Py], in series [4] (CH3CN), the “Stokes Shift” value is 14 nm, the “Φf (fluorescence quantum yield)” value is 0.31, the “ε (molar extinction coefficient)” value is reported as 72,100 M^−1 cm ^−1 and the λabs is reported as 501 nm. The λem in series [4] (CH3CN) is 515 nm. Further, the IC50 in the series on HEp2 cells [1] is > 200 µM. Moreover, in the series on HEp2 cells [2], the half-inhibitory concentration (IC50) is > 100 µM.

On to `CC1=C(Cl)C(C)=[N+]2C1=C(c1cc[n+](C)cc1)c1c(C)c(Cl)c(C)n1[B-]2(F)F` [4catPyCl2], for which, in series [4] (CH3CN), the “Stokes Shift” value is 62 nm, the “Φf (fluorescence quantum yield)” value is 0.048, the “ε (molar extinction coefficient)” value is listed as 23,400 M^−1 cm ^−1 and the λabs is 538 nm. Also, in series [4] (CH3CN), the λem was 600 nm. For the same compound, in series [4] (H2O), the “Stokes Shift” value is on record as 65 nm, the “Φf (fluorescence quantum yield)” value was 0.038, the “ε (molar extinction coefficient)” value was 11,640 M^−1 cm ^−1 and the λabs is 540 nm. Also, the λem in series [4] (H2O) is recorded as 605 nm. Moreover, the “two-electron reduction shift positive compared with 4catPy” value in the series “Cyclic voltammetry” is 180 mV. Moreover, in the series “Cyclic voltammetry” (100 mV/s), the “anodic peak shift positive compared with the corresponding unchlorinated BODIPY” value is 180 mV. For the same compound, in the series “Cyclic voltammetry” (setting [5]), the “E1/2red, two-electron reduction to doubly reduced state” value is −0.89 ^e V. Further, the E1/2ox entry in “Cyclic voltammetry” (vs. Fc^+/Fc, value at 1 V/s, acetonitrile, 0.25 M NBu4PF6) is given as “+1.03 ^d V”. Moreover, the “fluorescence enhancement relative to the non-chlorinated pyridinium BODIPY” value in series [3] (water) is on record as 10 fold.

`O.O.O.O.O.O.[Cl-].[Cl-].[Ru+2].c1ccc(-c2ccccn2)nc1.c1ccc(-c2ccccn2)nc1.c1ccc(-c2ccccn2)nc1` [Ru(bpy)Cl2.6H2O, reference compound]: the “Φf of the reference standard” value in series [4] (in water) was 0.028.

As for `CC/N=c1\cc2oc3cc(NCC)c(C)cc3c(-c3ccccc3C(=O)OCC)c-2cc1C` [rhodamine 6G, reference compound], the “Φf of the reference standard” value in series [4] (in methanol) was 0.86.
